Legend:
[1] = Gas-induced (pressurized CO2) phase transformation of crystal forms, followed by XRPD; format: physicochemical
Source text: The invention teaches that simple pressurization of polymorphic forms of an organic solid, such as a pharmaceutical agent, can effect phase transitions among the forms with ease. More specifically, the inventive method comprises the step of subjecting an organic solid to a pressurized gas under low to moderate pressure at room temperature to a mildly elevated temperature for a period of time. The pressurized gas may be CO2, N2O, and CH4, and the pressure may start at 1 atm, whereas under slightly elevated pressure, the reaction temperature may be lowered, while the reaction time may be shortened.
Refer to FIG. 3, which includes schematic illustrations of the phase transformations between different forms of Clarithromycin 1. […] As expected, desolvated form I can be transformed to form II with greater ease under analogous conditions. […] Different gases including H2, He, CH4, N2, O2, air, and N2O have been studied, among which N2O has similar transformation effect as CO2.
Refer to FIG. 5, which compares the transformations under different gas pressures (350 psi vs. 100 psi) at different durations.
The invention has also studied Lansoprazole 2 transformations under CO2 but at higher pressure conditions.

[2] = 1:1 ethanol hydrate; cited from earlier work
[3] = cited from earlier work

## CC[C@H]1OC(=O)[C@H](C)[C@@H](O[C@H]2C[C@@](C)(OC)[C@@H](O)[C@H](C)O2)[C@H](C)[C@@H](O[C@@H]2O[C@H](C)C[C@H](N(C)C)[C@H]2O)[C@](C)(OC)C[C@@H](C)C(=O)[C@H](C)[C@@H](O)[C@]1(C)O [Clarithromycin form 0, 6-O-methylerythro-mycin A]
[1]; 23.8 atm (350 psi) CO2, room temperature
  time of exposure for complete transformation directly to form II: 4 h

## CC[C@H]1OC(=O)[C@H](C)[C@@H](O[C@H]2C[C@@](C)(OC)[C@@H](O)[C@H](C)O2)[C@H](C)[C@@H](O[C@@H]2O[C@H](C)C[C@H](N(C)C)[C@H]2O)[C@](C)(OC)C[C@@H](C)C(=O)[C@H](C)[C@@H](O)[C@]1(C)O [Clarithromycin form I, 6-O-methylerythro-mycin A]
[1]; pressurization under 350 psi CO2
  time for transformation to form II: within just several minutes

## Cc1c(OCC(F)(F)F)ccnc1C[S+]([O-])c1nc2ccccc2[nH]1 (stereo not drawn) [Lansoprazole ethanol hydrate, Lansoprazole]
[1]; 500 psi CO2, room temperature
  transformation of ethanol hydrate to solvent-free form: transformation to the more thermodynamically stable solvent-free form begins
[2]
  chemical stability of the solvate: prone to decomposition

## CO[C@@H]1[C@@H](OC(N)=O)[C@@H](O)[C@H](Oc2ccc3c(O)c(NC(=O)c4ccc(O)c(CC=C(C)C)c4)c(=O)oc3c2C)OC1(C)C [novobiocin amorphous phase, novobiocin]
[3]
  absorption upon oral administration: readily absorbed

## CO[C@@H]1[C@@H](OC(N)=O)[C@@H](O)[C@H](Oc2ccc3c(O)c(NC(=O)c4ccc(O)c(CC=C(C)C)c4)c(=O)oc3c2C)OC1(C)C [novobiocin crystalline form, novobiocin]
[3]
  absorption upon oral administration: poorly absorbed
